Source: US6080791A, “Method of treating a viral condition by inhibiting membrane fusion” (priority 1992, dated 2000)
Like-named read-outs stand apart in the source and are kept apart here.

How the values were obtained:
[1] = test system: hemagglutinin-mediated hemolysis of human red blood cells; experiment: Hemolysis (HEM) assay; assay type: cell-based, C22 influenza virus; human red blood cells; conditions: for inhibition at 1000 µM: log conc -3 (M)
hemoglobin = experiment: Hb control (quenching of OD570 of hemoglobin); parameters: species or system human
in vitro = conditions: dog, mdck
Protocol: The ELISA-based assay described below (EIA antiviral assay) was used to measure antiviral activity. Cell viability was measured in parallel to distinguish inhibition of viral replication from toxicity.
Infections of MDCK2 cells with virus, compounds, and DMSO were set up identically as for the EIA assay. Following the 15 hour incubation, test compounds were washed away with PBS. 50 μl of MDCK2 growth media and 25 μl 2 mg/ml 3-(4,5-dimethylthiazol-2-yl)-2,5-diphenyl tetrazolium bromide (Sigma) in PBS were added to each well. Plates were returned to 37° C., 5% CO2 for 4 hrs. Crystals were broken up by vigorous mixing following addition of 80 μl isopropanol/0.04 N HCl. After incubation for 30 mins at RT, OD570 was read on an ELISA reader. % Inhibition is the % reduction of OD570 in the wells infected with compound compared to otherwise identical samples with compound omitted.

C22 virus in MDCK2 cells = experiment: microbe, parasite or virus in culture; conditions: unidentified influenza virus
[2] = target: hemagglutinin (BHA), fusion peptide exposure (Influenza A virus (A/X-31(H3N2)), UniProt P03438); assay type: biochemical, C22 / X31 influenza virus (H3N2)
Sequence of hemagglutinin (BHA), fusion peptide exposure (Influenza A virus (A/X-31(H3N2)), UniProt P03438) (P03438 whole entry, looked up, the tested form may be a part): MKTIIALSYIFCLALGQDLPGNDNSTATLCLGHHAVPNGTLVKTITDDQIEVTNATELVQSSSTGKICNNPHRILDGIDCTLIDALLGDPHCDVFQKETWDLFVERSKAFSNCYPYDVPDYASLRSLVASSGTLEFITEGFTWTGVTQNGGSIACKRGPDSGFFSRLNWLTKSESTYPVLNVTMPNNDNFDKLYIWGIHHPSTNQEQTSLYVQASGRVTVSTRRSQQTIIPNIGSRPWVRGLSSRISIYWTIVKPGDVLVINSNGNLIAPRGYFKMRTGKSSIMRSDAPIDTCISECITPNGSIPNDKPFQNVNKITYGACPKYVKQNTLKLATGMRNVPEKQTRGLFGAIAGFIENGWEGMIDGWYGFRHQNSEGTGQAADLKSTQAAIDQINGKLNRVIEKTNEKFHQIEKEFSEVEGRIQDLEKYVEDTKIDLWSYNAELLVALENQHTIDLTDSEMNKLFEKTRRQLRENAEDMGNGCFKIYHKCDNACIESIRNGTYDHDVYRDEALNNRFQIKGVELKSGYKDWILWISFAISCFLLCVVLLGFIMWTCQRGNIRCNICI

low pH BHA = experiment: SPA POST control (nonspecific quenching); parameters: species or system C22 / X31 influenza virus (H3N2)
Protocol: The compounds being screened by SPA are present during scintillation counting. Some of the chemicals, particularly those that are highly colored, quench the detection of radioactivity. A control ("POST") distinguishes whether apparent inhibition arises from inhibition of the conformational change or from nonspecific effects. The test compound is added to a sample of BHA that had previously been acidified and reneutralized. The mixture is then precipitated as usual. Since the BHA treated in this manner is known to be in the low pH conformation, a reduction in measurable cpm compared to controls with ligand omitted proves the compound interferes with the detection system.
^3 H-Leu BHA was diluted to 10,000 cpm (counts per minute) per 200 μl in MSSH buffer (10 mM HEPES, 10 mM MES, 10 mM succinate, 0.10 M NaCl, pH 7.0) containing 0.1% NP40. Protein was incubated with the specified concentration of trial compound for 25 minutes at RT. The same volume of solvent used to dissolve the compound was added to control samples and the final concentration of DMSO in all solutions was 0.67% v/v. A predetermined amount of 1N HAc was added to bring the reactions to the appropriate pH (usually pH 5.0). Following a 5 minute (unless specified otherwise) incubation at RT, reactions were reneutralized with 1N NaOH. For POST controls, compounds were added to the appropriate concentration after reneutralization. 200 μL aliquots of the protein solution were added to scintillation vials containing 100 μl protein A-SPA beads (Amersham), 5% fetal bovine serum (FBS), and antibody. Vials were incubated overnight at RT with constant shaking. Each reaction used 10 μl of fusion peptide antiserum diluted 1:10 with 50% glycerol. Cpm were detected in a Beckman LS3801 scintillation counter without addition of liquid scintillant.
Apparent inhibition due to nonspecific effects was quantitated from the POST controls with the equation:
observed cpm=true cpm*quench factor

[3] = unidentified influenza virus, Erythrocyte, 0.25 h, Table 6, 10^-3 = 1 mM, low pH 15 minutes, read-out: IC50 hemolysis
[4] = unidentified influenza virus, Erythrocyte, read-out: hemolysis % ↓ OD
[5] = MDCK2, 15 h, read-out: infectivity % inhibition

## Oc1cccc2c(O)cccc12 [Compound 126, 1,5-naphthalenediol]
[1]
  inhibition of hemolytic activity: apparently inhibited hemolytic activity
[1]; [3]
  IC50: 1000 µM
[1]; unidentified influenza virus, Erythrocyte, Table 7, read-out: HEM, negative log of IC50 (converted)
  IC50: 1000 µM
[1]; [4]
  inhibition at 1000 µM: 101 ± 7.6%
hemoglobin; log conc -3 (M)
  Hb control % ↓ OD: 54.4 ± 3.7%
In vitro
  cytotoxicity at 15 h, 1 µM: -6.9 ± 4%
  cytotoxicity at 15 h, 10 µM: -9.2 ± 0.6%
  cytotoxicity at 15 h, 100 µM: -7.6 ± 7.3%
C22 virus in MDCK2 cells; [5]
  inhibition at 1 µM: 3.8 ± 5.5%
  inhibition at 10 µM: 7.4 ± 1.8%
  inhibition at 100 µM: 35.6 ± 0.6%
C22 virus in MDCK2 cells; MDCK2, read-out: IC50 infectivity
  IC50: > 100 µM
C22 virus in MDCK2 cells; MDCK2, read-out: INF, negative log of IC50 (converted)
  IC50: > 100 µM

## ClC1(Cl)C2CC3C4C=CC(C4)C3C21 (stereo not drawn) [Compound 92, 5,5-dichlorotetracyclo-[6.2.1.0,2,7.0.4.6] undec-9-ene]
[2]; 1 μM-1 mM
  inhibition in the SPA assay: showed no inhibition

## Oc1ccc(O)c2c1C1C=CC2C1 [Compound 83A, 5,8-dihydro-5,8-methano-1,4-naphthalenediol]
[2]
  SPA activity: significantly higher activity
Low pH BHA; log conc -3 (M)
  % inhibition, POST control: 0.5 ± 1.1%
Low pH BHA; log conc -4 (M)
  % inhibition, POST control: -0.9 ± 1.5%
Low pH BHA; log conc -5 (M)
  % inhibition, POST control: -0.5%
Low pH BHA; log conc -6 (M)
  % inhibition, POST control: 10.8%

## O=C1C=C(Br)C(=O)c2ccccc21 [Compound 135, 2-bromo-1,4-naphthoquinone]
[1]
  inhibition of hemolytic activity: did not
[1]; [3]
  IC50: > 1000 µM
[1]; [4]
  inhibition at 1000 µM: 80.3%
hemoglobin; log conc -3 (M)
  Hb control % ↓ OD: 75.2%

## OC1=CCC2C3C=CC(C3)C12 (stereo not drawn) [Compound 109, hydroxydicyclopentadiene]
[2]; 1 μM-1 mM
  inhibition in the SPA assay: showed no inhibition
[2]; Table 7
  activity note in Table 7: inactive

## O=C1C=CC(=O)c2c(O)cccc21 [Compound 119, 5-hydroxy-1,4-naphthoquinone]
[2]; 1 μM-1 mM
  inhibition in the SPA assay: showed no inhibition
[2]; Table 7
  activity note in Table 7: inactive
In vitro
  cytotoxicity at 15 h, 100 µM: 97.8%

## COC(=O)C1C2C=CC(C2)C1C(=O)OC (stereo not drawn) [Compound 85, dimethylbicyclo[2.2.1]-5-heptene-2,3-dicarboxylate]
[2]; 1 μM-1 mM
  inhibition in the SPA assay: showed no inhibition

## Oc1cccc2ccccc12 [Compound 106, 1-naphthol]
[2]; 1 μM-1 mM
  inhibition in the SPA assay: showed no inhibition
[2]; Table 7
  activity note in Table 7: inactive

## COC(=O)C1C=CCC2C(=O)C=CC(=O)C12 (stereo not drawn) [Compound 97, methyl 5,8-dioxo-1,4,4A,5,8,8A-hexahydro-1-naphthalenecarboxylate]
[1]
  inhibition of hemolytic activity: apparently inhibited hemolytic activity
[1]; unidentified influenza virus, Erythrocyte, Table 7, preliminary results, read-out: HEM, negative log of IC50 (preliminary results) (converted)
  IC50: 100 µM
[1]; [4]
  inhibition at 1000 µM: 102 ± 5.8%
[1]; unidentified influenza virus, Erythrocyte, log conc -4 (M), read-out: hemolysis % ↓ OD
  inhibition at 100 µM: 94.6%
[1]; unidentified influenza virus, Erythrocyte, log conc -5 (M), read-out: hemolysis % ↓ OD
  inhibition at 10 µM: 23.7%
[1]; unidentified influenza virus, Erythrocyte, log conc -6 (M), read-out: hemolysis % ↓ OD
  inhibition at 1 µM: 6.6%
hemoglobin; log conc -3 (M)
  Hb control % ↓ OD: 55.0 ± 13.3%
hemoglobin; log conc -4 (M)
  Hb control % ↓ OD: 37.6 ± 4.9%
hemoglobin; log conc -5 (M)
  Hb control % ↓ OD: 31%
hemoglobin; log conc -6 (M)
  Hb control % ↓ OD: 13.0%
In vitro
  cytotoxicity at 15 h, 1 µM: -3.1 ± 7.9%
  cytotoxicity at 15 h, 10 µM: 32.9 ± 30.9%
  cytotoxicity at 15 h, 100 µM: 95.9 ± 8%
C22 virus in MDCK2 cells; [5]
  inhibition at 1 µM: -4.7 ± 9.4%
  inhibition at 10 µM: 92.6 ± 12.7%
C22 virus in MDCK2 cells; MDCK2, read-out: INF, negative log of IC50 (preliminary results) (converted)
  IC50: 1 to 10 µM

## Cl.N=C(N)Sc1cc(O)ccc1O [Compound 112, 2-(2,5-dihydroxyphenyl)-2-thiopseudourea hydrochloride]
[2]
  % inhibition, sample: 40.1%

## CC(=O)OC1CC2CC1C1C3C=CC(C3)C21 (stereo not drawn) [Compound 88, 1,2,3,4,4A,5,8,8A-octahydro-1,4:5,8-dimethanonaphth-2-yl acetate]
[2]; 1 μM-1 mM
  inhibition in the SPA assay: showed no inhibition
[2]; Table 7
  activity note in Table 7: inactive

## CCOC(=O)c1c(C)cc(O)cc1O [Compound 122, ethyl 2,4-dihydroxy-6-methylbenzoate]
[2]; 1 μM-1 mM
  inhibition in the SPA assay: showed no inhibition
[2]; Table 7
  activity note in Table 7: inactive

## O=C1C2C3C=CC(C3)C2C(=O)N1O (stereo not drawn) [Compound 94, N-hydroxy-5-norbornene-2,3-dicarboximide]
[2]; 1 μM-1 mM
  inhibition in the SPA assay: showed no inhibition
[2]; Table 7
  activity note in Table 7: inactive

## OC1CC2CC1C1C3C=CC(C3)C21 (stereo not drawn) [Compound 96, 1,2,3,4,4A,5,8,8A-octahydro-1,4:5,8-dimethano-2-naphthol]
[2]; 1 μM-1 mM
  inhibition in the SPA assay: showed no inhibition

## Oc1ccc(O)cc1 [Compound 104, hydroquinone]
[2]
  activity note in Table 7: inactive
  inhibition in the SPA assay: showed no inhibition

## O=C(O)C1C2C=CC(O2)C1C(=O)O (stereo not drawn) [Compound 86, 3,6-endoxo-1,2,3,6-tetrahydrophthalic acid]
[2]; 1 μM-1 mM
  inhibition in the SPA assay: showed no inhibition
[2]; Table 7
  activity note in Table 7: inactive

## COC(=O)C1C2C=CC(C2)C1C(=O)O (stereo not drawn) [Compound 87, 5-norbornene-2,3-dicarboxylic acid monomethyl ester]
[2]; 1 μM-1 mM
  inhibition in the SPA assay: showed no inhibition

## O=c1[nH][nH]c(=O)c2ccccc12 [Compound 108, phthalhydrazide]
[2]; 1 μM-1 mM
  inhibition in the SPA assay: showed no inhibition
[2]; Table 7
  activity note in Table 7: inactive

## O=C(O)[C@@H]1[C@H](C(=O)O)[C@@H]2C=C[C@H]1C2 [Compound 89, cis-5-norbornene-endo-2,3-dicarboxylic acid]
[2]; 1 μM-1 mM
  inhibition in the SPA assay: showed no inhibition
[2]; Table 7
  activity note in Table 7: inactive

## CN1C(=O)C2C3C=CC(C3)C2C1=O (stereo not drawn) [Compound 95, N-methyl-5-norbornene-2,3-dicarboximide]
[2]; 1 μM-1 mM
  inhibition in the SPA assay: showed no inhibition
[2]; Table 7
  activity note in Table 7: inactive

## O=C(O)C1C2C=CC(C2)C1C(=O)Nc1ccccc1 (stereo not drawn) [Compound 98, 3-(N-phenylcarbamoyl)-5-norbornen-2-carboxylic acid]
[2]; 1 μM-1 mM
  inhibition in the SPA assay: showed no inhibition

## O=C1NC(=O)c2ccccc21 [Compound 100, phthalimide]
[2]; 1 μM-1 mM
  inhibition in the SPA assay: showed no inhibition
[2]; Table 7
  activity note in Table 7: inactive

## N#Cc1c(O)ccc(O)c1C#N [Compound 103, 2,3-dicyanohydroquinone]
[2]; 1 μM-1 mM
  inhibition in the SPA assay: showed no inhibition
[2]; Table 7
  activity note in Table 7: inactive

## CC1=CC(=O)c2ccccc2C1=O [Compound 118, 2-methyl-1,4-naphthoquinone]
[2]; 1 μM-1 mM
  inhibition in the SPA assay: showed no inhibition
[2]; Table 7
  activity note in Table 7: inactive

## Oc1cccc2cccnc12 [Compound 127, 8-hydroxyquinoline]
[2]
  activity note in Table 7: inactive
  inhibition in the SPA assay: showed no inhibition
